In ChEMBL document CHEMBL1145498, “A systematic interaction map of validated kinase inhibitors with Ser/Thr kinases” (Proc Natl Acad Sci U S A, 2007):

Assays:
[1] = target: Tyrosine-protein kinase JAK1 (Homo sapiens) (UniProt P23458)
[2] = target: Serine/threonine-protein kinase 38 (Homo sapiens) (UniProt Q15208)
[3] = target: Serine/threonine-protein kinase pim-2 (Homo sapiens, UniProt Q9P1W9)
[4] = target: Calcium/calmodulin-dependent protein kinase type 1D (Homo sapiens) (UniProt Q8IU85)
[5] = target: Serine/threonine-protein kinase pim-1 (Homo sapiens) (UniProt P11309)
Serine/threonine-protein kinase pim-1 (Homo sapiens), sequence (P11309 whole entry, looked up): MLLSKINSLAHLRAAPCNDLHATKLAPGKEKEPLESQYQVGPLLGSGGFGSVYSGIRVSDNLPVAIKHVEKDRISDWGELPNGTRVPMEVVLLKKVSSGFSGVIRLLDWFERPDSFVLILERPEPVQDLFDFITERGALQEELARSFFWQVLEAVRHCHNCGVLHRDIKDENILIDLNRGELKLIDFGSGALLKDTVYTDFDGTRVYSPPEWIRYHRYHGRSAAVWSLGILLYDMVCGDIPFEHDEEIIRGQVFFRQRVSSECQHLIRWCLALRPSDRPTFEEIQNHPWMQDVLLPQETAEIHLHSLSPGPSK

[6] = target: T1, Myotonin-protein kinase (Homo sapiens) (UniProt Q09013)
T1 sequence (whole entry): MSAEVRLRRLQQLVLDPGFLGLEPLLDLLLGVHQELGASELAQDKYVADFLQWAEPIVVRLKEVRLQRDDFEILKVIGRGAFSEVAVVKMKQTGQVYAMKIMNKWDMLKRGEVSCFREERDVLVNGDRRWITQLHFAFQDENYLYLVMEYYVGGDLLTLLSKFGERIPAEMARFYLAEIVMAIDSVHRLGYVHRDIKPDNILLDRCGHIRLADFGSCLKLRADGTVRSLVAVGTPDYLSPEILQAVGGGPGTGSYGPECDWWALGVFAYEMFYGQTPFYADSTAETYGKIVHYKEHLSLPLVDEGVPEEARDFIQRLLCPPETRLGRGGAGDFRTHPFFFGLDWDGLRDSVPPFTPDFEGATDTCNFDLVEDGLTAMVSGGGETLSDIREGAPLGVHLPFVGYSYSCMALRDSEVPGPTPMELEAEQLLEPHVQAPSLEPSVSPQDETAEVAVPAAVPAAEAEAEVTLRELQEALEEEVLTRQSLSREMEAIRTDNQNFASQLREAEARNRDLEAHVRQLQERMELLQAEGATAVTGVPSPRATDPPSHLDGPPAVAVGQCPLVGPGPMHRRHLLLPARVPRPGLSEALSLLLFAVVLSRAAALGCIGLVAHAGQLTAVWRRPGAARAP

[7] = target: Casein kinase I isoform gamma-2 (Homo sapiens) (UniProt P78368)
Casein kinase I isoform gamma-2 (Homo sapiens), sequence (P78368 whole entry, looked up, canonical isoform): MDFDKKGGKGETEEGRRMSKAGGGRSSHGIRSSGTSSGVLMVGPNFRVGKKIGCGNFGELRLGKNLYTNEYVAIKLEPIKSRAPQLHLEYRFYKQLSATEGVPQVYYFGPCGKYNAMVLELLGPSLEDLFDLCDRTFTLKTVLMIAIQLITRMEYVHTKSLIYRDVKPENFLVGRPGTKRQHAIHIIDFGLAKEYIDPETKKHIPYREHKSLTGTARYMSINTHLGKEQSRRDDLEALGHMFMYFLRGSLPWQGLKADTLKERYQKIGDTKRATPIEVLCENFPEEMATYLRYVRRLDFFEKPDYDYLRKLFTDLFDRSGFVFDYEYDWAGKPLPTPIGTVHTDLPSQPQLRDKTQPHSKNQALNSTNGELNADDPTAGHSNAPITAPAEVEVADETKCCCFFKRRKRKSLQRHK

[8] = target: T2, Lymphokine-activated killer T-cell-originated protein kinase (Homo sapiens) (UniProt Q96KB5)
T2 sequence (whole entry): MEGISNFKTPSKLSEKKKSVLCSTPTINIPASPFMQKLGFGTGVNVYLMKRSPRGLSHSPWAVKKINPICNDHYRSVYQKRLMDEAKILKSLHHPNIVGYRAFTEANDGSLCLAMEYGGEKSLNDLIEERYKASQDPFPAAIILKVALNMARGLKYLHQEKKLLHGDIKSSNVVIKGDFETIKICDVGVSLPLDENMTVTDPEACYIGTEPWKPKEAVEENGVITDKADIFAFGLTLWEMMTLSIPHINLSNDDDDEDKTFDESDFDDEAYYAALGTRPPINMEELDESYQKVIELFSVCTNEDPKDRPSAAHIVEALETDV

[9] = target: Dual specificity protein kinase CLK2 (Homo sapiens) (UniProt P49760)
Dual specificity protein kinase CLK2 (Homo sapiens), sequence (P49760 whole entry, looked up): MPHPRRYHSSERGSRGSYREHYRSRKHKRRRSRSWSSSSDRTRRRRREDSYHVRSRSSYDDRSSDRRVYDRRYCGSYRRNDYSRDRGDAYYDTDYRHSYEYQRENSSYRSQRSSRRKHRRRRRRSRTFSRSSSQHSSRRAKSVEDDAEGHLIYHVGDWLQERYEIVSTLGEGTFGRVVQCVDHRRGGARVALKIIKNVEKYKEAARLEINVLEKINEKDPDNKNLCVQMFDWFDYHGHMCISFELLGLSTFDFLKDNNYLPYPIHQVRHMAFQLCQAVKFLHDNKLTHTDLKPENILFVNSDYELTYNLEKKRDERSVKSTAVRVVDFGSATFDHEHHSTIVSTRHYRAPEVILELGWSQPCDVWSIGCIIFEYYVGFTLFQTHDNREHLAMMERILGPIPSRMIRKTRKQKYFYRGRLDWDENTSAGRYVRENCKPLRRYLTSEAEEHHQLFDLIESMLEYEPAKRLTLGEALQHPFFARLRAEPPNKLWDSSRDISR

[10] = target: Cyclin-dependent kinase 16 (Homo sapiens) (UniProt Q00536)
Cyclin-dependent kinase 16 (Homo sapiens), sequence (Q00536 whole entry): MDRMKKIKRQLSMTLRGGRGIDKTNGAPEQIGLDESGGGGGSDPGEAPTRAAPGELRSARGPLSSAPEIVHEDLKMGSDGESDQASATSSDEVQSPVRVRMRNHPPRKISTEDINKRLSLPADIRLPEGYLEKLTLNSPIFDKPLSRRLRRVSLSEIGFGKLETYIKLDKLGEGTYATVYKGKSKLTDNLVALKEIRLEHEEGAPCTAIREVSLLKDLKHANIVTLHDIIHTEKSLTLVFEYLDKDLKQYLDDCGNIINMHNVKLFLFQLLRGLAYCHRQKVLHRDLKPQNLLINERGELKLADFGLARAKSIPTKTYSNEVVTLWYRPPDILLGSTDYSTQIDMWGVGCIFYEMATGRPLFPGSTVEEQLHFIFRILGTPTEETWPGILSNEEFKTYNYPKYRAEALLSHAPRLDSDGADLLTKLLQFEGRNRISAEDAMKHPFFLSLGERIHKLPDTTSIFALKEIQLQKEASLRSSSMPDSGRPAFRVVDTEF

[11] = target: Glycogen synthase kinase-3 beta (Homo sapiens, UniProt P49841)
Glycogen synthase kinase-3 beta, sequence (P49841 whole entry, looked up): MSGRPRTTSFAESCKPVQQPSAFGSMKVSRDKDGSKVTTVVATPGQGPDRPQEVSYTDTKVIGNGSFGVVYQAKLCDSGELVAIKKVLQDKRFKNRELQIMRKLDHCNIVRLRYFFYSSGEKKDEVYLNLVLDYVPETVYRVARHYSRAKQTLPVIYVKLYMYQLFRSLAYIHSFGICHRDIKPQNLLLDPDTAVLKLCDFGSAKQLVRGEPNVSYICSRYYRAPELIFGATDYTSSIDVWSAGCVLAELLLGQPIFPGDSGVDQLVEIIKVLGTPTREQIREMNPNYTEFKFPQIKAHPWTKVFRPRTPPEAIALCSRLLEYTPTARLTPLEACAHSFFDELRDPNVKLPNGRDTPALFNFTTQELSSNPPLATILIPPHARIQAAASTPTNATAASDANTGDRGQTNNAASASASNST

[12] = target: T3, Serine/threonine-protein kinase Nek2 (Homo sapiens) (UniProt P51955)
T3 sequence (whole entry): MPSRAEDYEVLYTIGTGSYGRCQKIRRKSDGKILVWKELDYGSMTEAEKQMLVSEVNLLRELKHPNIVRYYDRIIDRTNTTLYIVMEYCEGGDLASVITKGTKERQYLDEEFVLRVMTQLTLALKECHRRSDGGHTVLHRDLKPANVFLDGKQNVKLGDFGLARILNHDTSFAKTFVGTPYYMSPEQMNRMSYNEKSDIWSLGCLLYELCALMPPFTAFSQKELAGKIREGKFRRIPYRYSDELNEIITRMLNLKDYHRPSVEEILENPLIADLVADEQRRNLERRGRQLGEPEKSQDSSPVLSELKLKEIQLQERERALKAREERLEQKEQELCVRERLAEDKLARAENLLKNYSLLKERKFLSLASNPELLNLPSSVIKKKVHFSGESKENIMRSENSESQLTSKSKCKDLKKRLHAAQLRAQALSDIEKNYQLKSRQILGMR

[13] = target: Calcium/calmodulin-dependent protein kinase type II subunit alpha (Homo sapiens) (UniProt Q9UQM7)
Calcium/calmodulin-dependent protein kinase type II subunit alpha (Homo sapiens), sequence (Q9UQM7 whole entry): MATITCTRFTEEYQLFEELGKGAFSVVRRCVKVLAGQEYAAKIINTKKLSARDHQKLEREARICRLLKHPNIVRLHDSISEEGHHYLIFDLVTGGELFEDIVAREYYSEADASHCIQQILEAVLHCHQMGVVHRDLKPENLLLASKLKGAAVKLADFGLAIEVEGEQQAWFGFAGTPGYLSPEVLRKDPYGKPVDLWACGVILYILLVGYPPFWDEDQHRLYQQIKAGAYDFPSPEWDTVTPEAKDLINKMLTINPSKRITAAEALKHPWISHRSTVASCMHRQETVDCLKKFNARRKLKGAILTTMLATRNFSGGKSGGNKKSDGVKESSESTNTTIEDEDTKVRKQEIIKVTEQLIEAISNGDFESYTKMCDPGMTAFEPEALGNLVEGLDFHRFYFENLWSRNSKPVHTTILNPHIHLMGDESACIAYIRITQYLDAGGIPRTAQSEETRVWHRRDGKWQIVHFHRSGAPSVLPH

[14] = target: Serine/threonine-protein kinase Chk2 (Homo sapiens, UniProt O96017)
[15] = target: Serine/threonine-protein kinase PLK1 (Homo sapiens) (UniProt P53350)
[16] = target: Calcium/calmodulin-dependent protein kinase type 1G (Homo sapiens) (UniProt Q96NX5)
[17] = target: Casein kinase I isoform gamma-1 (Homo sapiens) (UniProt Q9HCP0)
[18] = target: STE20-like serine/threonine-protein kinase (Homo sapiens) (UniProt Q9H2G2)
[19] = target: Ribosomal protein S6 kinase alpha-3 (Homo sapiens) (UniProt P51812)
[20] = target: Serine/threonine-protein kinase 26 (Homo sapiens) (UniProt Q9P289)
Serine/threonine-protein kinase 26 (Homo sapiens), sequence (Q9P289 2-416 limits assumed): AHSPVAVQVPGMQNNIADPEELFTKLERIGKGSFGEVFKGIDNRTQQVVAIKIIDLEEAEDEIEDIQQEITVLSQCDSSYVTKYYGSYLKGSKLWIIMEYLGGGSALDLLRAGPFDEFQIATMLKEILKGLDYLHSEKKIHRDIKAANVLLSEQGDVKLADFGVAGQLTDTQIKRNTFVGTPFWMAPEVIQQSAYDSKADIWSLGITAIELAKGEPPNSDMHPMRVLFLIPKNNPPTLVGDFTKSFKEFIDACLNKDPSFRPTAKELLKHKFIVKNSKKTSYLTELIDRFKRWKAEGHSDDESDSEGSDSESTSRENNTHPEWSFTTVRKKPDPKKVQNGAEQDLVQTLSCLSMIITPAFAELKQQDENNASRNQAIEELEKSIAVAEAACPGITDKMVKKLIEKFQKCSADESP

[21] = target: Calcium/calmodulin-dependent protein kinase type II subunit delta (Homo sapiens) (UniProt Q13557)
Calcium/calmodulin-dependent protein kinase type II subunit delta (Homo sapiens), sequence (Q13557 whole entry): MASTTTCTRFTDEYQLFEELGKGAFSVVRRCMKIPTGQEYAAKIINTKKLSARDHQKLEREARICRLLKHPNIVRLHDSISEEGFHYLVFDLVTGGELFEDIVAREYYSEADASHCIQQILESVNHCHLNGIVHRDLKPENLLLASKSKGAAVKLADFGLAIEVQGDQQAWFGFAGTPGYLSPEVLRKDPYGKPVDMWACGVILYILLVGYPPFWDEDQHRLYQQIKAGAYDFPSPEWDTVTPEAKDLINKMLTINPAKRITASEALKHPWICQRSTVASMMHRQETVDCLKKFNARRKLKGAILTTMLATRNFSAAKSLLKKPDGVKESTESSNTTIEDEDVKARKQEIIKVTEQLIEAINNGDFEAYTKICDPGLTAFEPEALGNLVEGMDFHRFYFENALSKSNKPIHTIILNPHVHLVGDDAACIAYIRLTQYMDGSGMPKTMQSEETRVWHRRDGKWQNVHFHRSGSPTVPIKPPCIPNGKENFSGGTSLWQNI

[22] = target: Dual specificity protein kinase CLK3 (Homo sapiens) (UniProt P49761)
[23] = target: Calcium/calmodulin-dependent protein kinase kinase 2 (Homo sapiens, UniProt Q96RR4)
Calcium/calmodulin-dependent protein kinase kinase 2, sequence (Q96RR4 2-588 limits assumed): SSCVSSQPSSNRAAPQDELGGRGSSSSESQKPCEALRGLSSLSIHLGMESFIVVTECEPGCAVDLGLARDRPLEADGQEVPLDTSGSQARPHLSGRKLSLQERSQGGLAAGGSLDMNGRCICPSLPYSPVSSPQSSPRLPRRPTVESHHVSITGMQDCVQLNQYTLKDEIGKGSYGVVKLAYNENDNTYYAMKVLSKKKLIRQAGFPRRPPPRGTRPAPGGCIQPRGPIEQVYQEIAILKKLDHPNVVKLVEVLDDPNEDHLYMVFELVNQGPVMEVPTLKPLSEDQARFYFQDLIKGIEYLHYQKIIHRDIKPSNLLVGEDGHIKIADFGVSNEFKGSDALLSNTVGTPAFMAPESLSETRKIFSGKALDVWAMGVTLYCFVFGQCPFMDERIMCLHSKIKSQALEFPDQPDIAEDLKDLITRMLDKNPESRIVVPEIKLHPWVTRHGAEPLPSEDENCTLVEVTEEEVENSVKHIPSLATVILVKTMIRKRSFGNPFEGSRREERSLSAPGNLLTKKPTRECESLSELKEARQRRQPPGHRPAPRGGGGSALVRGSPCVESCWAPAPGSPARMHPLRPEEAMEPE

[24] = target: Dual specificity mitogen-activated protein kinase kinase 2 (Homo sapiens, UniProt P36507)
Dual specificity mitogen-activated protein kinase kinase 2, sequence (P36507 whole entry): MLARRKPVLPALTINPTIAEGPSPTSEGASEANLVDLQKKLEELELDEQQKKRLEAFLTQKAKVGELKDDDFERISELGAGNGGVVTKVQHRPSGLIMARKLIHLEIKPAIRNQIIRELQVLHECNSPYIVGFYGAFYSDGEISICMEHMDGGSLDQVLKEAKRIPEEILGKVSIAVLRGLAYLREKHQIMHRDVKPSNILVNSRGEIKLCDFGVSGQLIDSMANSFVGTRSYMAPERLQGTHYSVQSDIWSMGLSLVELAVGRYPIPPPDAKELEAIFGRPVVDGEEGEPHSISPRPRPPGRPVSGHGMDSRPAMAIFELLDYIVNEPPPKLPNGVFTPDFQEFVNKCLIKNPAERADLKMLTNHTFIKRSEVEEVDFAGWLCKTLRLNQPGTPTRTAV

[25] = target: Cyclin-dependent kinase 6 (Homo sapiens) (UniProt Q00534)
Cyclin-dependent kinase 6 (Homo sapiens), sequence (Q00534 whole entry): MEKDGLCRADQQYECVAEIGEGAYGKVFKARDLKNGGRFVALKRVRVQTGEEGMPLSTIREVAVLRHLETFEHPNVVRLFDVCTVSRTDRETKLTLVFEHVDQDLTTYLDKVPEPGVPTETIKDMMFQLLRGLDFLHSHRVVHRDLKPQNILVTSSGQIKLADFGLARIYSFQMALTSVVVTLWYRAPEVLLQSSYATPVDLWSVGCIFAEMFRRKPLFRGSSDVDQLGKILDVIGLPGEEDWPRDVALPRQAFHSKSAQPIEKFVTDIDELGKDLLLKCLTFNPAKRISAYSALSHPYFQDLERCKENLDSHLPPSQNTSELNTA

[26] = target: Dual specificity protein kinase CLK1 (Homo sapiens) (UniProt P49759)

Compound	ΔTm [1]	ΔTm [2]	ΔTm [3]	ΔTm [4]	ΔTm [5]	ΔTm [6]	ΔTm [7]	ΔTm [8]	ΔTm [9]	ΔTm [10]	ΔTm [11]	ΔTm [12]	ΔTm [13]	ΔTm [14]	ΔTm [15]	ΔTm [16]	ΔTm [17]	ΔTm [18]	ΔTm [19]	ΔTm [20]	also measured
CC(C)(C)n1nc(-c2ccc(Cl)cc2)c2c(N)ncnc21	0.3 °C	0.7 °C	0.2 °C	-0.2 °C	0.1 °C	0.6 °C	0.8 °C	0.7 °C	1.4 °C	-0.5 °C	0.5 °C	0.3 °C	0.5 °C	0.4 °C	0.9 °C	0 °C	1 °C	3.6 °C	0.4 °C	-0.3 °C	ΔTm [21]: -0.1 °C; ΔTm [22]: 0.7 °C; ΔTm [23]: 1 °C; ΔTm [24]: 3.3 °C; ΔTm [25]: -0.4 °C; ΔTm [26]: 2.1 °C
COc1ccc(S(=O)(=O)N(CCO)c2ccccc2CN(C)C/C=C/c2ccc(Cl)cc2)cc1	-0.5 °C	-0.2 °C	0.6 °C	-0.3 °C	1.3 °C	-0.7 °C	0.3 °C	-0.1 °C	-0.3 °C	-0.6 °C	0 °C	-0.1 °C	-0.7 °C	-0.1 °C	-0.2 °C	0.3 °C	0.1 °C	1.1 °C	0.7 °C	-0.1 °C	ΔTm [21]: -1.2 °C; ΔTm [22]: -0.3 °C; ΔTm [23]: 0 °C; ΔTm [24]: -0.2 °C; ΔTm [25]: -0.3 °C; ΔTm [26]: 0.1 °C
O=c1c2ccccc2[nH]c(=S)n1CCN1CCC(=C(c2ccc(F)cc2)c2ccc(F)cc2)CC1 [DIACYLGLYCEROL KINASE INHIBITOR II]	0.6 °C	0.2 °C	1.4 °C	0.8 °C	0 °C	-0.7 °C	0.5 °C	0.1 °C	0.3 °C	-0.7 °C	1.9 °C	1.5 °C	-0.6 °C	1.6 °C	0.6 °C	0.1 °C	-0.2 °C	2.3 °C	0.3 °C	2.1 °C	ΔTm [21]: -5.4 °C; ΔTm [22]: 0.2 °C; ΔTm [23]: 1.8 °C; ΔTm [24]: 0.3 °C; ΔTm [25]: -0.4 °C; ΔTm [26]: 0.3 °C
N#CC(C#N)=Cc1ccc(O)c(O)c1 [TYRPHOSTIN 23]	0.1 °C	0.2 °C	1 °C	0.2 °C	1.5 °C	0 °C	0.4 °C	0.4 °C	0.1 °C	-0.7 °C	0.8 °C	1.2 °C	0.2 °C	0.7 °C	0.4 °C	0 °C	0.4 °C	0.6 °C	2.7 °C	0.1 °C	ΔTm [21]: 0.4 °C; ΔTm [22]: 0.4 °C; ΔTm [23]: -0.7 °C; ΔTm [24]: 0.1 °C; ΔTm [25]: 0.2 °C; ΔTm [26]: 0.7 °C
C[S+]([O-])c1ccc(CSc2nc(-c3ccc(F)cc3)c(-c3ccncc3)[nH]2)cc1 (stereo not drawn)	0.2 °C	0.4 °C	0.4 °C	0 °C	-2 °C	0.5 °C	0.9 °C	0.5 °C	0.2 °C	-0.7 °C	0 °C	0.5 °C	-0.1 °C	-0.4 °C	-0.2 °C	0 °C	0.2 °C	1.1 °C	0.1 °C	0 °C	ΔTm [21]: 0 °C; ΔTm [22]: -0.1 °C; ΔTm [23]: 0.9 °C; ΔTm [24]: -0.4 °C; ΔTm [25]: 0.2 °C; ΔTm [26]: -0.5 °C
CCN(CC)CCNC(=O)c1c(C)[nH]c(/C=C2\C(=O)Nc3ccc(Cl)cc32)c1C [SU-11652]	9.7 °C	2.7 °C	2.3 °C	2.6 °C	2.9 °C	2.9 °C	4 °C	-0.4 °C	5.8 °C	3.5 °C	3.8 °C	5.1 °C	5.7 °C	10.3 °C	0.5 °C	5.7 °C	4.3 °C	7.5 °C	6.8 °C	5.8 °C	ΔTm [21]: 2.3 °C; ΔTm [22]: 2.2 °C; ΔTm [23]: 7.9 °C; ΔTm [24]: 6.3 °C; ΔTm [25]: 2 °C; ΔTm [26]: 6.6 °C
Cn1cnc2c(NCc3ccccc3)nc(NCCO)nc21 [OLOMOUCINE]	0 °C	0 °C	0.1 °C	-0.1 °C	-1 °C	-0.1 °C	0.5 °C	0.4 °C	0.1 °C	-0.6 °C	0.1 °C	1.1 °C	-0.3 °C	-0.6 °C	-0.9 °C	0 °C	0.1 °C	0 °C	-0.2 °C	0 °C	ΔTm [21]: -0.2 °C; ΔTm [22]: -0.1 °C; ΔTm [23]: -0.2 °C; ΔTm [24]: -0.4 °C; ΔTm [25]: 0 °C; ΔTm [26]: -0.2 °C
CCCCc1c(-c2ccc(O)cc2)[nH]c2nccnc12 [ALOISINE A]	0.5 °C	4 °C	4.5 °C	1.2 °C	1.7 °C	6.1 °C	2.2 °C	0.7 °C	1.9 °C	-0.5 °C	8.3 °C	-0.4 °C	0.1 °C	5.7 °C	2.8 °C	0.6 °C	3 °C	6.8 °C	1.9 °C	4.1 °C	ΔTm [21]: 1.8 °C; ΔTm [22]: 1.5 °C; ΔTm [23]: 1.8 °C; ΔTm [24]: 2.1 °C; ΔTm [25]: 1.3 °C; ΔTm [26]: 3.5 °C
